“And” between values parts separate entries of the source, which are not always exact repeats. Equal entries are not always repeated.
Key:
[1] = target: KDM5B (Homo sapiens, UniProt Q9UGL1); experiment: KDM5B alphascreen activity assay; assay type: biochemical; settings: Table 1, KDM5B alphascreen activity assay
Description: All subsequent steps were carried out in assay buffer (50 mM HEPES, pH 7.5, 0.1% (wt/vol) BSA and 0.01% (vol/vol) Tween-20). […] The final concentration of DMSO was 1%. […] Data were normalized to the (no-enzyme) control, and the IC50 values were determined via nonlinear regression curve fit using GraphPad Prism 7.

[2] = system: luciferized molp8 cells; experiment: In vivo mouse study, bioluminescence imaging (BLI) of luciferized molp8 cells; set-up: species or system Mice; reference not given here; settings: one individual mouse (cage, EP)
Description: Mice were injected intravenously with luciferized molp8 cells. Half million cells per mice. After 1 week, the tumor was observed using bioluminescence imaging (BLI). The normalized total flux was measured over 17 days (FIG. 12; Table 5) Mice were randomized into control and treatment. Treatment lasted for 21 days. Animals with 15% weight loss was terminated.

[3] = system: MYC target genes in MM.1S cells; experiment: Gene expression profile by RNA-seq with gene set enrichment analysis in MM.1S cells; assay type: cell-based, human; settings: RNA-seq after treatment in MM.1S cells
Text: To clarify the molecular mechanism whereby KDM5A mediates MM cell growth, the gene expression profile using RNA-seq after the treatment with pck82 in MM.1S cells was examined.

[4] = system: H3K4me3 mark; experiment: ChIP-seq analysis of H3K4me3 mark; assay type: cell-based

Chain of KDM5B (Q9UGL1 whole entry): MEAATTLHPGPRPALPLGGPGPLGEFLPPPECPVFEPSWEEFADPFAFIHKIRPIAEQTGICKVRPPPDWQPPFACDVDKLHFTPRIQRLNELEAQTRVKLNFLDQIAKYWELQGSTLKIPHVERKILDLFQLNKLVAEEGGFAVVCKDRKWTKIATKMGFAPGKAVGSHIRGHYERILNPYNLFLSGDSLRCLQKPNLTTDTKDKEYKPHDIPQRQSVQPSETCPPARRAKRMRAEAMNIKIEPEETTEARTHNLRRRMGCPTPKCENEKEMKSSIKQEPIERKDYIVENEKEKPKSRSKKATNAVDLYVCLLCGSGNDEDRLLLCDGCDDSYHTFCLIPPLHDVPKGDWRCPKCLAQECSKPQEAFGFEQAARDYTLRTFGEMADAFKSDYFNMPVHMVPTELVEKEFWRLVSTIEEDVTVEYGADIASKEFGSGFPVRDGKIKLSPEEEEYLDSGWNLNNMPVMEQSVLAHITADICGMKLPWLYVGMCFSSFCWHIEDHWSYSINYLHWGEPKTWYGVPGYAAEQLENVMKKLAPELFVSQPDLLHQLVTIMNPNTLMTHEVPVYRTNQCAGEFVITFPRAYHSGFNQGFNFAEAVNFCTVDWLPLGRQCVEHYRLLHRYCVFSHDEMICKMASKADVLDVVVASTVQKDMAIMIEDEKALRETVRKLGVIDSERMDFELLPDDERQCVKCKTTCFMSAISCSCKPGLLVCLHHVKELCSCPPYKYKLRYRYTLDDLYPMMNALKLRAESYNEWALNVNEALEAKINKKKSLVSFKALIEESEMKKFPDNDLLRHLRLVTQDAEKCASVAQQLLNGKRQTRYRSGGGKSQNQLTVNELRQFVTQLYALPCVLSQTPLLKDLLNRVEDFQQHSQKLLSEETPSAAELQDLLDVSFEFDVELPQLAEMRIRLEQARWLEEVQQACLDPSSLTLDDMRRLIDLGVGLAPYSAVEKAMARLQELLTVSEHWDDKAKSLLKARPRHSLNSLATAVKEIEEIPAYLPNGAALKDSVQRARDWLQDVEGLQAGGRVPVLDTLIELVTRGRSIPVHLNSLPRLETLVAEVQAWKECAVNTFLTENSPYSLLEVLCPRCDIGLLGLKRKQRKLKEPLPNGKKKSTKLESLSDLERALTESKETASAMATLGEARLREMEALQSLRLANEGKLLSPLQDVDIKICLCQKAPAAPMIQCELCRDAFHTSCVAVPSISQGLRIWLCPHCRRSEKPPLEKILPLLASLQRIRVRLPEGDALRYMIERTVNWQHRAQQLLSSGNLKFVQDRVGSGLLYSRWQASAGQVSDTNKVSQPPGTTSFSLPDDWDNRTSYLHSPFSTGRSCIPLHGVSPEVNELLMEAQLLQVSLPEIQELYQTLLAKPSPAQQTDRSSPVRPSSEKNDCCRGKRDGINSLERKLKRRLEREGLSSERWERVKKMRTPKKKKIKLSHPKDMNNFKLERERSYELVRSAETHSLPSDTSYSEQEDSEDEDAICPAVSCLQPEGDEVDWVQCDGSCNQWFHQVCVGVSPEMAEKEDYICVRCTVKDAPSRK

| IC50 [1] [µM] | Compound | Normalized total flux from BLI imaging ([2]; Day 0) | Normalized total flux from BLI imaging ([2]; Day 3) | Normalized total flux from BLI imaging ([2]; Day 7) | Normalized total flux from BLI imaging ([2]; Day 10) | Normalized total flux from BLI imaging ([2]; Day 14) | Normalized total flux from BLI imaging ([2]; Day 17) | Normalized total flux from BLI imaging ([2]; Day 21) | expression of MYC target genes (gene set enrichment analysis) [3] | H3K4me3 mark, global ([4]; ChIP-seq after treatment) | H3K4me3 mark at the loci of MYC and its targets ([4]; ChIP-seq, targets whose expression is down-regulated after treatment) |
| --- | --- | --- | --- | --- | --- | --- | --- | --- | --- | --- | --- |
| 7.92 | CC(C)c1c(-c2ccccc2)[nH]c2c(C#N)cnn2c1=O [CPI455] | – | – | – | – | – | – | – | – | – | – |
| – | CCN(CCN(C)C)C(=O)CNCc1cc(C(=O)Oc2ccc(OC(C)C)cc2OC(C)C)ccn1 [PCK82] | 1 | 3.764 and 4.5 and 4.255 and 3.625 and 2.035 and 2.296 and 3.238 and 0.2149 and 0.3339 | 0.5646 and 9.722 and 8.546 and 8.656 and 13.51 and 1.677 and 8.169 and 0.2301 and 39.37 | 6.63 and 19.33 and 0.422 and 44.375 and 23.38 and 25.97 and 24.97 and 1.029 and 6.22 | 191.7 and 165.6 and 135.1 and 93.75 and 380.3 and 314.2 and 275.1 and 75.66 and 5.654 | 306.3 and 4.861 and 358.2 and 465.625 and 258.8 and 133.2 and 277.2 and 359 and 565.6 | 45 and 3.404 and 435.5 and 58.66 and 1309 and 1224 and 847.4 and 121.6 and 1078 | decreased expression of MYC target genes | globally increased H3K4me3 mark | did not increase this mark |
